The values below are quoted from earlier work in patent US20130039995A1, “DERMATOLOGICAL COMPOSITIONS COMPRISING AT LEAST ONE REINOID COMPOUND, AN ANTI-IRRITANT COMPOUND AND BENZOYL PEROXIDE” (Galderma Research & Development, priority 2007, published 2013).

With `O=C(OOC(=O)c1ccccc1)c1ccccc1` [benzoyl peroxide], under “in solution in ethanol, propylene glycol and mixtures of PEG 400 and water, depends on type of solvent and its concentration”, the “degradation of benzoyl peroxide in solution” value is recorded as “degrades more or less rapidly”. Where the note is “in suspension (disperse form) in water and in propylene glycol, after 90 days of storage”, the “degradation of benzoyl peroxide in suspension on storage” value was “not degraded”.
